Biological target: NR2A-containing NMDA receptor (NR2A subunit) (Rattus norvegicus, UniProt Q00959)
Type: cell-based

NR2A-containing NMDA receptor (NR2A subunit), sequence (Q00959 23-1464, other chains not shown): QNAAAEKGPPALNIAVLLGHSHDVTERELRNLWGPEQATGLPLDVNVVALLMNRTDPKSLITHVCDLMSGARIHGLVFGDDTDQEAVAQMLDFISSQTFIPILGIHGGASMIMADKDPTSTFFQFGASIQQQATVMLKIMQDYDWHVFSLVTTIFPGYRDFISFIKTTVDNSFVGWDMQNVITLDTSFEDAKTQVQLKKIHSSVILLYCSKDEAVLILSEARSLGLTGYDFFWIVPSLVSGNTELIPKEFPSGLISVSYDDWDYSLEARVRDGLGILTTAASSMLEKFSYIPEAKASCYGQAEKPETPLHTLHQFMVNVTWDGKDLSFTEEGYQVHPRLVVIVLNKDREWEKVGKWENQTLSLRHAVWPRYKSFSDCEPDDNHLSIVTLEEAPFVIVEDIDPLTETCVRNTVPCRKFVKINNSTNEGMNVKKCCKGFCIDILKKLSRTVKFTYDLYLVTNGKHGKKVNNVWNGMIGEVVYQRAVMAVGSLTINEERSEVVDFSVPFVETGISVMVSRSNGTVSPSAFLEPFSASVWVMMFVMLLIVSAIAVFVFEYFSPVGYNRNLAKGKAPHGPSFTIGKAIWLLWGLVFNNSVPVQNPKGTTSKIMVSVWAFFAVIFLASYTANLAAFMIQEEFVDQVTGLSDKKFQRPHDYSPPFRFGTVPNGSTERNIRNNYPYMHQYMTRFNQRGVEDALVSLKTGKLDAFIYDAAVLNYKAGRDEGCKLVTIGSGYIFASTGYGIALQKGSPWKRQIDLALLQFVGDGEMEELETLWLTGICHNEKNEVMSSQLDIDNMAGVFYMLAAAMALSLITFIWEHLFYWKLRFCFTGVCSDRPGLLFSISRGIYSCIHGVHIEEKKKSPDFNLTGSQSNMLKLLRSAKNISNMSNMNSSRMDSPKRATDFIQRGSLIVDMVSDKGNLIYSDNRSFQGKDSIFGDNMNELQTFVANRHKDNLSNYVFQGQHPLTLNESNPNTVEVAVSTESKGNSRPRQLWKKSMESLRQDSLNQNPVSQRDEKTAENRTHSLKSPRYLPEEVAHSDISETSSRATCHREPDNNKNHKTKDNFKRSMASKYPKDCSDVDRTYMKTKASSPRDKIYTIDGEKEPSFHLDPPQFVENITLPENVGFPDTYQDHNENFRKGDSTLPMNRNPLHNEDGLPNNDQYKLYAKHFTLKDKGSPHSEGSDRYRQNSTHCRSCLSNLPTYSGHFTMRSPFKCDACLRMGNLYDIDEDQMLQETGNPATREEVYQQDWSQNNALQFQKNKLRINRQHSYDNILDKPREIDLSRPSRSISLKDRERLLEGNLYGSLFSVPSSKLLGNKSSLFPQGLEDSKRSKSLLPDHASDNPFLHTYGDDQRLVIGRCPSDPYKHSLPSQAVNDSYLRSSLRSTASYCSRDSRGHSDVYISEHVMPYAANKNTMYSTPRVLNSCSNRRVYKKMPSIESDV

IC50: 130 ± 40 nM
Compound: C[C@H](NC(c1cccc2[nH]c(=O)c(=O)[nH]c12)P(=O)(O)O)c1ccc(Br)cc1 (stereo partly drawn) [PEAQX, ({[(1S)-1-(4-bromophenyl)ethyl]amino}-(2,3-dioxo-1,4-dihydroquinoxalin-5-yl)methyl)phosphonic acid]

Source: publication PMC3427421 (2012)
